Source: ChEMBL document CHEMBL5036303, “Cyclic Analogues of the Chemerin C-Terminus Mimic a Loop Conformation Essential for Activating the Chemokine-like Receptor 1” (J Med Chem, 2021)
Each block holds one molecule with its values, some of them ahead of it. Where a SMILES comes first, the peptide text is derived from it.

Assays:
[1] = target: T1, Chemerin-like receptor 1 (Homo sapiens, UniProt Q99788); assay: Agonist activity at wild type CMKL1 (unknown origin) expressed in COS-7 cells assessed as increase in calcium flux measured for 40 sec by Fluo-2 AM dye based assay; assay type: functional, cell-based
T1 sequence (Q99788 whole entry): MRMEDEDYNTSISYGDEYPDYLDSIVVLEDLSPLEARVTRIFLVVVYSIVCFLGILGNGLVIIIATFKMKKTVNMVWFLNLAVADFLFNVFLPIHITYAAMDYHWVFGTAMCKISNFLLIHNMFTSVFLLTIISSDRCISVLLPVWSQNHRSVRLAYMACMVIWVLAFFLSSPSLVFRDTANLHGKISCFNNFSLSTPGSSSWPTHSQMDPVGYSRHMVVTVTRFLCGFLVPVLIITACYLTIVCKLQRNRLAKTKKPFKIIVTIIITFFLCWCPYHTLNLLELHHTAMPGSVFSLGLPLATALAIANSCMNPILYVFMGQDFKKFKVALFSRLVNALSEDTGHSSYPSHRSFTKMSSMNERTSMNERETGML

[2] = Agonist activity at CMKL1 Y268L mutant (unknown origin) expressed in COS-7 cells assessed as increase in calcium flux measured for 40 sec by Fluo-2 AM dye based assay; assay type: cell-based
[3] = Agonist activity at CMKL1 F479A mutant (unknown origin) expressed in COS-7 cells assessed as accumulation of inositol phosphate incubated for 3 hrs by liquid scintillation counting method; assay type: cell-based; conditions: COS-7, 3 h
[4] = Agonist activity at CMKL1 E658A mutant (unknown origin) expressed in COS-7 cells assessed as accumulation of inositol phosphate incubated for 3 hrs by liquid scintillation counting method; assay type: cell-based; conditions: COS-7, 3 h
[5] = Agonist activity at CMKL1 F476A mutant (unknown origin) expressed in COS-7 cells assessed as increase in calcium flux measured for 40 sec by Fluo-2 AM dye based assay; assay type: cell-based
[6] = Agonist activity at CMKL1 F476A mutant (unknown origin) expressed in COS-7 cells assessed as accumulation of inositol phosphate incubated for 3 hrs by liquid scintillation counting method; assay type: cell-based; conditions: COS-7, 3 h
[7] = Agonist activity at CMKL1 Y268A mutant (unknown origin) expressed in COS-7 cells assessed as increase in calcium flux measured for 40 sec by Fluo-2 AM dye based assay; assay type: cell-based
[8] = Agonist activity at CMKL1 E658A mutant (unknown origin) expressed in COS-7 cells assessed as increase in calcium flux measured for 40 sec by Fluo-2 AM dye based assay; assay type: cell-based
[9] = Agonist activity at CMKL1 Y263A mutant (unknown origin) expressed in COS-7 cells assessed as increase in calcium flux measured for 40 sec by Fluo-2 AM dye based assay; assay type: cell-based
[10] = Agonist activity at CMKL1 F479A mutant (unknown origin) expressed in COS-7 cells assessed as increase in calcium flux measured for 40 sec by Fluo-2 AM dye based assay; assay type: cell-based
[11] = target: T1, Chemerin-like receptor 1; assay: Agonist activity at Wild type CMKL1 (unknown origin) expressed in COS-7 cells assessed as accumulation of inositol phosphate incubated for 3 hrs by liquid scintillation counting method; assay type: functional, cell-based

Compound: CC(C)C[C@H](NC(=O)[C@H](CCC(N)=O)NC(=O)CNC(=O)[C@@H]1CCCN1C(=O)[C@H](Cc1ccccc1)NC(=O)[C@@H](N)Cc1ccc(O)cc1)C(=O)N[C@@H](C)C(=O)N[C@@H](Cc1ccccc1)C(=O)N[C@@H](CO)C(=O)O
EC50 [1]: 195 nM | EC50 ([2]; read-out: EC50): > 1000 nM | EC50 ([2]; read-out: pEC50 (converted)): > 1000 nM

Compound: C[C@H](NC(=O)[C@H](Cc1ccccc1)NC(=O)[C@H](CCC(N)=O)NC(=O)CNC(=O)[C@@H]1CCCN1C(=O)[C@H](Cc1ccccc1)NC(=O)[C@@H](N)Cc1ccc(O)cc1)C(=O)N[C@@H](Cc1ccccc1)C(=O)O (H-YFPGQFAF-OH)
EC50 [1]: 20 nM

EC50 [3]: > 10000 nM | EC50 ([4]; read-out: EC50): > 10000 nM | EC50 ([4]; read-out: pEC50 (converted)): > 10000 nM | EC50 ([5]; read-out: EC50): 85 nM | EC50 ([5]; read-out: pEC50 (converted)): 85.1 nM | EC50 [6]: 3890 nM | EC50 ([7]; read-out: EC50): > 1000 nM | EC50 ([7]; read-out: pEC50 (converted)): > 1000 nM | EC50 ([8]; read-out: EC50): > 1000 nM | EC50 ([8]; read-out: pEC50 (converted)): > 1000 nM | EC50 ([9]; read-out: EC50): 197 nM | EC50 ([9]; read-out: pEC50 (converted)): 200 nM | EC50 ([10]; read-out: EC50): > 1000 nM | EC50 ([10]; read-out: pEC50 (converted)): > 1000 nM
Compound: C[C@@H]1NC(=O)[C@H](Cc2ccccc2)NC(=O)[C@H](CCC(N)=O)NC(=O)[C@H](NC(=O)[C@@H]2CCCN2C(=O)[C@H](Cc2ccccc2)NC(=O)[C@@H](N)Cc2ccc(O)cc2)CCSSC[C@@H](C(=O)O)NC(=O)[C@H](Cc2ccccc2)NC1=O (HELM PEPTIDE1{Y.F.P.[O=C([C@@H](CCS[*:3])N[*:1])[*:2]].Q.F.A.F.C}$PEPTIDE1,PEPTIDE1,4:R3-9:R3$$$V2.0)

Compound: C[C@H](NC(=O)[C@H](Cc1ccccc1)NC(=O)[C@H](CCC(N)=O)NC(=O)CNC(=O)[C@@H]1CCCN1C(=O)[C@H](Cc1ccccc1)NC(=O)[C@@H](N)Cc1ccc(O)cc1)C(=O)NCc1ccccc1
EC50 [1]: 32 nM

EC50 [1]: 64 nM | EC50 [11]: 150 nM
Compound: C[C@@H]1NC(=O)[C@H](Cc2ccccc2)NC(=O)[C@H](CCC(N)=O)NC(=O)[C@@H](NC(=O)[C@@H]2CCCN2C(=O)[C@H](Cc2ccccc2)NC(=O)[C@@H](N)Cc2ccc(O)cc2)CSSC[C@@H](C(=O)O)NC(=O)[C@H](Cc2ccccc2)NC1=O (HELM PEPTIDE1{Y.F.P.C.Q.F.A.F.C}$PEPTIDE1,PEPTIDE1,4:R3-9:R3$$$V2.0)
